Reference: ChEMBL document CHEMBL4138170, “Synthesis and biological evaluation of novel alkylated polyamine analogues as potential anticancer agents” (Eur J Med Chem, 2018)
Activity calls are given as the source filed them. The rule behind the calls is not given here.

What was measured:
SMMC-7721 [1] = assay: Induction of autophagy in human SMMC7721 cells assessed as increase in Beclin 1 levels at 2.5 to 7.5 um after 24 to 48 hrs by Western blot analysis; type: functional, cell-based
SMMC-7721 [2] = assay: Induction of ROS generation in human SMMC7721 cells at 2.5 to 10 uM after 24 hrs by H2DCFDA staining-based flow cytometry; type: functional, cell-based
SMMC-7721 [3] = assay: Downregulation of beta-catenin protein expression in human SMMC7721 cells after 24 to 48 hrs by Western blot analysis; type: functional, cell-based
HepG2 [4] = assay: Induction of autophagy in human HepG2 cells assessed as increase in Beclin 1 levels at 2.5 to 7.5 um after 24 to 48 hrs by Western blot analysis; type: functional, cell-based
HepG2 [5] = assay: Downregulation of MMP9 protein expression in human HepG2 cells after 24 to 48 hrs by Western blot analysis; type: functional, cell-based
HepG2 [6] = assay: Induction of autophagy in human HepG2 cells assessed as increase in LC3-2 levels after 24 to 48 hrs by Western blot analysis; type: functional, cell-based
HepG2 [7] = assay: Induction of ROS generation in human HepG2 cells after 24 hrs by H2DCFDA staining-based HCS analysis; type: functional, cell-based
SMMC-7721 [8] = assay: Induction of ROS generation in human SMMC7721 cells at 10 uM after 24 hrs in presence of antioxidant NAC by H2DCFDA staining-based flow cytometry; type: functional, cell-based
[9] = Stability of the compound after 24 hrs by 1H NMR spectroscopic method; type: physicochemical
HepG2 [10] = assay: Inhibition of cell migration in human HepG2 cells at 2.5 to 7.5 uM incubated for 24 to 48 hrs by cell wound scratch assay; type: functional, cell-based
HepG2 [11] = assay: Induction of ROS generation in human HepG2 cells at 10 uM after 24 hrs in presence of antioxidant NAC by H2DCFDA staining-based flow cytometry; type: functional, cell-based
SMMC-7721 [12] = assay: Antiproliferative activity against human SMMC7721 cells after 48 hrs by MTT assay; type: functional, cell-based; conditions: SMMC-7721, 48 h
MCF7 = assay: Antiproliferative activity against human MCF7 cells after 48 hrs by MTT assay; type: functional, cell-based; conditions: MCF7, 48 h
HepG2 [13] = assay: Induction of autophagy in human HepG2 cells assessed as upregulation of ATG5 expression level up to 10 uM after 24 to 48 hrs by Western blot analysis; type: functional, cell-based
Mus musculus [14] = assay: Toxicity in Swiss mouse xenografted with mouse H22 cells assessed as effect on kidney weight at 0.75 mg/kg/day, iv administered via tail vein for 7 days; type: organism-based; conditions: in vivo, 168 h
SMMC-7721 [15] = assay: Induction of autophagy in human SMMC7721 cells assessed as upregulation of ATG7 expression level up to 10 uM after 24 to 48 hrs by Western blot analysis; type: functional, cell-based
HepG2 [16] = assay: Induction of autophagy in human HepG2 cells assessed as upregulation of ATG7 expression level up to 10 uM after 24 to 48 hrs by Western blot analysis; type: functional, cell-based
[17] = Stability of the compound after 48 hrs by 1H NMR spectroscopic method; type: physicochemical
SMMC-7721 [18] = assay: Inhibition of cell migration in human SMMC7721 cells at 2.5 to 7.5 uM incubated for 24 to 48 hrs by cell wound scratch assay; type: functional, cell-based
HT-29 = assay: Antiproliferative activity against human HT-29 cells after 48 hrs by MTT assay; type: functional, cell-based; conditions: HT-29, 48 h
H22 [19] = assay: Antitumor activity against mouse H22 cells implanted in Swiss mouse assessed as inhibition of lung metastasis at 0.75 mg/kg/day, iv administered via tail vein for 7 days relative to control; type: functional; conditions: 168 h
HCT-116 = assay: Antiproliferative activity against human HCT116 cells after 48 hrs by MTT assay; type: functional, cell-based; conditions: HCT-116, 48 h
Mus musculus [20] = assay: Toxicity in Swiss mouse implanted with mouse H22 cells assessed as effect on quality of life at 0.75 mg/kg/day, iv administered via tail vein for 7 days; type: organism-based; conditions: in vivo, 168 h
Mus musculus [21] = assay: Toxicity in Swiss mouse implanted with mouse H22 cells assessed as effect on heart weight at 0.75 mg/kg/day, iv administered via tail vein for 7 days; type: organism-based; conditions: in vivo, 168 h
SMMC-7721 [22] = assay: Induction of autophagy in human SMMC7721 cells assessed as downregulation of p62 expression level up to 10 uM after 24 to 48 hrs by Western blot analysis; type: functional, cell-based
HepG2 [23] = assay: Induction of autophagy in human HepG2 cells assessed as increase in LC3-2 levels in presence of antioxidant NAC by Western blot analysis; type: functional, cell-based
CT26 [24] = assay: Antiproliferative activity against mouse CT26 cells after 48 hrs by MTT assay; type: functional, cell-based; conditions: CT26, 48 h
HepG2 [25] = assay: Downregulation of beta-catenin protein expression in human HepG2 cells after 24 to 48 hrs by Western blot analysis; type: functional, cell-based
HepG2 [26] = assay: Induction of autophagy in human HepG2 cells up to 10 uM after 48 hrs in presence of antioxidant NAC by MDC staining-based flow cytometry; type: functional, cell-based
Mus musculus [27] = assay: Toxicity in Swiss mouse implanted with mouse H22 cells assessed as effect on body weight at 0.75 mg/kg/day, iv administered via tail vein for 7 days; type: organism-based; conditions: in vivo, 168 h
HepG2 [28] = assay: Induction of ROS generation in human HepG2 cells at 2.5 to 10 uM after 24 hrs by H2DCFDA staining-based flow cytometry; type: functional, cell-based
MDA-MB-231 = assay: Antiproliferative activity against human MDA-MB-231 cells after 48 hrs by MTT assay; type: functional, cell-based; conditions: MDA-MB-231, 48 h
CT26 [29] = assay: Antimetastatic activity against mouse CT26 cells implanted in BALB/c mouse assessed as reduction in lung metastatic nodules at 0.75 mg/kg, iv administered via tail vein for 9 days; type: functional, organism-based
Mus musculus [30] = assay: Toxicity in Swiss mouse xenografted with mouse H22 cells assessed as effect on lung weight at 0.75 mg/kg/day, iv administered via tail vein for 7 days; type: organism-based; conditions: in vivo, 168 h
HepG2 [31] = assay: Antiproliferative activity against human HepG2 cells after 48 hrs in presence of antioxidant NAC by MTT assay; type: functional, cell-based
HepG2 [32] = assay: Antiproliferative activity against human HepG2 cells after 48 hrs by MTT assay; type: functional, cell-based; conditions: HepG2, 48 h
K562 = assay: Antiproliferative activity against human K562 cells after 48 hrs by MTT assay; type: functional, cell-based; conditions: K562, 48 h
SMMC-7721 [33] = assay: Induction of ROS generation in human SMMC7721 cells after 24 hrs by H2DCFDA staining-based HCS analysis; type: functional, cell-based
SMMC-7721 [34] = assay: Induction of autophagy in human SMMC7721 cells assessed as increase in LC3-2 levels after 24 to 48 hrs by Western blot analysis; type: functional, cell-based
Mus musculus [35] = assay: Toxicity in Swiss mouse xenografted with mouse H22 cells assessed as effect on spleen weight at 0.75 mg/kg/day, iv administered via tail vein for 7 days; type: organism-based; conditions: in vivo, 168 h
Mus musculus [36] = assay: Toxicity in Swiss mouse xenografted with mouse H22 cells assessed as effect on liver weight at 0.75 mg/kg/day, iv administered via tail vein for 7 days; type: organism-based; conditions: in vivo, 168 h
SMMC-7721 [37] = assay: Induction of autophagy in human SMMC7721 cells assessed as upregulation of ATG5 expression level up to 10 uM after 24 to 48 hrs by Western blot analysis; type: functional, cell-based
HepG2 [38] = assay: Induction of autophagy in human HepG2 cells assessed as decrease in p62 levels in presence of antioxidant NAC by Western blot analysis; type: functional, cell-based
SMMC-7721 [39] = assay: Induction of autophagy in human SMMC7721 cells up to 10 uM after 48 hrs in presence of antioxidant NAC by MDC staining-based flow cytometry; type: functional, cell-based
SMMC-7721 [40] = assay: Antiproliferative activity against human SMMC7721 cells after 48 hrs in presence of antioxidant NAC by MTT assay; type: functional, cell-based
HepG2 [41] = assay: Antimigratory activity in human HepG2 cells incubated for 24 to 48 hrs in presence of autophagy inhibitor 3-MA by cell wound scratch assay; type: functional, cell-based
SMMC-7721 [42] = assay: Downregulation of MMP9 protein expression in human SMMC7721 cells after 24 to 48 hrs by Western blot analysis; type: functional, cell-based
SMMC-7721 [43] = assay: Induction of autophagy in human SMMC7721 cells assessed as decrease in p62 levels in presence of antioxidant NAC by Western blot analysis; type: functional, cell-based
SMMC-7721 [44] = assay: Induction of autophagy in human SMMC7721 cells assessed as increase in LC3-2 levels in presence of antioxidant NAC by Western blot analysis; type: functional, cell-based
H22 [45] = assay: Antiproliferative activity against mouse H22 cells after 48 hrs by MTT assay; type: functional, cell-based; conditions: H22, 48 h
SMMC-7721 [46] = assay: Induction of autophagy in human SMMC7721 cells up to 10 uM after 48 hrs by MDC staining-based flow cytometry; type: functional, cell-based
HepG2 [47] = assay: Induction of autophagy in human HepG2 cells up to 10 uM after 48 hrs by MDC staining-based flow cytometry; type: functional, cell-based
H22 [48] = assay: Antitumor activity against mouse H22 cells implanted in Swiss mouse assessed as tumor growth inhibition at 0.75 mg/kg/day, iv administered via tail vein for 7 days relative to control; type: functional; conditions: 168 h, read-out: TGI
HepG2 [49] = assay: Induction of autophagy in human HepG2 cells assessed as downregulation of p62 expression level up to 10 uM after 24 to 48 hrs by Western blot analysis; type: functional, cell-based

## Cl.Cl.Cl.O=C1c2cccc3cccc(c23)C(=O)N1CCCNCCCNCCCNC1CC1
SMMC-7721 [1]
  Activity: Active
SMMC-7721 [2]
  Activity: Active
SMMC-7721 [3]
  Activity: Dose-dependent effect
HepG2 [4]
  Activity: Active
HepG2 [5]
  Activity: Dose-dependent effect
HepG2 [6]
  Activity: Dose-dependent effect
HepG2 [7]
  Activity: Dose-dependent effect
SMMC-7721 [8]
  Activity: inactive
[9]
  Stability: Stable
HepG2 [10]
  inhibition: Active
HepG2 [11]
  Activity: inactive
SMMC-7721 [12]
  IC50: 5.13 µM
MCF7
  IC50: 7.47 µM
HepG2 [13]
  Activity: Active
Mus musculus [14]
  Activity: Non-Toxic
SMMC-7721 [15]
  Activity: Active
HepG2 [16]
  Activity: Active
[17]
  Stability: Stable
SMMC-7721 [18]
  inhibition: Active
HT-29
  IC50: 8.18 µM
H22 [19]
  inhibition in vivo at 0.75 mg/kg/day: 54.4%
HCT-116
  IC50: 5.28 µM
Mus musculus [20]
  Activity: Non-Toxic
Mus musculus [21]
  Activity: Non-Toxic
SMMC-7721 [22]
  Activity: Active
HepG2 [23]
  Activity: inactive
CT26 [24]
  IC50: 9.04 µM
HepG2 [25]
  Activity: Dose-dependent effect
HepG2 [26]
  Activity: inactive
Mus musculus [27]
  Activity: Non-Toxic
HepG2 [28]
  Activity: Active
MDA-MB-231
  IC50: 5.14 µM
CT26 [29]
  inhibition: Active
Mus musculus [30]
  Activity: Non-Toxic
HepG2 [31]
  Activity: inactive
HepG2 [32]
  IC50: 6.34 µM
K562
  IC50: 4.67 µM
SMMC-7721 [33]
  Activity: Dose-dependent effect
SMMC-7721 [34]
  Activity: Dose-dependent effect
Mus musculus [35]
  Activity: Non-Toxic
Mus musculus [36]
  Activity: Non-Toxic
SMMC-7721 [37]
  Activity: Active
HepG2 [38]
  Activity: inactive
SMMC-7721 [39]
  Activity: inactive
SMMC-7721 [40]
  Activity: inactive
HepG2 [41]
  Activity: Active
SMMC-7721 [42]
  Activity: Dose-dependent effect
SMMC-7721 [43]
  Activity: inactive
SMMC-7721 [44]
  Activity: inactive
H22 [45]
  IC50: 7.49 µM
SMMC-7721 [46]
  Activity: Active
HepG2 [47]
  Activity: Active
H22 [48]
  inhibition in vivo at 0.75 mg/kg/day: 68.3%
HepG2 [49]
  Activity: Active

## O=C1c2cccc3cccc(c23)C(=O)N1CCCNCCCCNCCCNC1CCCCC1
SMMC-7721 [12]
  IC50: 29.9 µM
HCT-116
  IC50: 18.3 µM
HepG2 [32]
  IC50: 25.4 µM
K562
  IC50: 17.2 µM

## O=C1c2cccc3cccc(c23)C(=O)N1CCCCNCCCCNCCCCNC1CCCCC1
SMMC-7721 [12]
  IC50: 14.3 µM
HCT-116
  IC50: 14.2 µM
HepG2 [32]
  IC50: 37 µM
K562
  IC50: 30.7 µM
